{
  "source": "patent EP4800018A1",
  "about": "“PAN-KRAS INHIBITOR AND USE THEREOF IN MEDICINES” (Betta Pharmaceuticals Co., Ltd., priority 2023, dated 2025)",
  "key": {"[1]": {"test_system": "KRAS-G12V mutant tumor cells SW620", "test": "Cell Proliferation Inhibition Assay (SW620), Cell-titer GLO, 96 h", "assay_type": "cell-based", "conditions": "Homo sapiens, SW-620, 96 h, SW620 cells, 96 h incubation, Cell-titer GLO; read-out: SW620(G12V)", "method_in_brief": "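SW620 cells (1×10^3/well, low-attachment) were exposed to compound from 10000 to 0.03 nM (0.5% DMSO) for 96 h at 37°C. Viability was read by Cell-titer GLO luminescence. Inhibition was calculated relative to DMSO and blank wells, and IC50 obtained by curve fitting.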"}, "[2]": {"test_system": "KRAS-G12D mutant tumor cells AGS", "test": "Cell Proliferation Inhibition Assay (AGS), Cell-titer GLO, 96 h", "assay_type": "cell-based", "conditions": "Homo sapiens, AGS, 96 h, AGS cells, 96 h incubation, Cell-titer GLO; read-out: AGS(G12D)", "method_in_brief": "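AGS cells (KRAS-G12D) grown in low-attachment plates were exposed to compound for 96 h at 37°C. Viability was read by CellTiter-Glo luminescence and converted to % inhibition against max and blank wells. IC50 came from curve fitting.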"}, "[3]": {"test": "PK Study of Compounds in Dogs", "assay_type": "in vivo, Beagle dogs", "conditions": "mean; for Cmax: read-out: C0/Cmax", "experimental": "The test compound was mixed with the vehicle (10% DMSO/5% Solutol/85% physiological saline), vortexed and sonicated to prepare a clear 1 mg/mL intravenous injection solution. The test compound was mixed with the vehicle (10% DMSO + 5% HS15 + 85% 10 mM aqueous citric acid solution), vortexed and sonicated to prepare a clear 0.6 mg/mL oral solution. Beagle dogs (two males, one female) were selected and administered the test compound via intravenous (IV) and oral (PO) routes, respectively. Whole blood samples were collected at 0 min, 5 min, 15 min, 30 min, 1 h, 2 h, 4 h, 6 h, 8 h, 12 h, 24 h, 48 h, and 72 h for the intravenous route, and at 0 min, 15 min, 30 min, 1 h, 2 h, 4 h, 6 h, 8 h, 12 h, 24 h, 48 h, and 72 h for the oral route. Drug concentrations were analyzed by LC-MS/MS method, and pharmacokinetic parameters were calculated using Phoenix WinNonlin software (Pharsight, USA)."}, "[4]": {"test": "PK Study of Compounds in Rats", "assay_type": "in vivo, Male SD rats", "conditions": "mean; for AUC(0-t): read-out: AUC0-t; for Cmax: read-out: C0/Cmax", "experimental": "(§1) The test compound was mixed with the vehicle (10% DMSO/5% Solutol/85% physiological saline), vortexed and sonicated to prepare a clear 0.5 mg/mL intravenous injection solution. The test compound was mixed with the vehicle (20% PEG400/10% Solutol/70% pH 4.5 acetate buffer), vortexed and sonicated to prepare a clear 1 mg/mL oral solution. Male SD rats aged 6 to 7 weeks were selected and administered the test compound via intravenous (IV) and oral (PO) routes, respectively. Whole blood samples were collected at 5 min, 15 min, 30 min, 1 h, 2 h, 4 h, 7 h, and 24 h for the intravenous route, and at 15 min, 30 min, 1 h, 2 h, 4 h, 7 h, and 24 h for the oral route. Drug concentrations were analyzed by LC-MS/MS method, and pharmacokinetic parameters were calculated using Phoenix WinNonlin software (Pharsight, USA)."}, "KRAS G12V-cRAF": {"molecular_target": "T1, KRAS G12V-cRAF (Homo sapiens, UniProt P01116, G12V)", "T1 construct": "expressed in transfected cells", "T1 sequence (P01116 1-188 isoform P01116-2 G12V)": "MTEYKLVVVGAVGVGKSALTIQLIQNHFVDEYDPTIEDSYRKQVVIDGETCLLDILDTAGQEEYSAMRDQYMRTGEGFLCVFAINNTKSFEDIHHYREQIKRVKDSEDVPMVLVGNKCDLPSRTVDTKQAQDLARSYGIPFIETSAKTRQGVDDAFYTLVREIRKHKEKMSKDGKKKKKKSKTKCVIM", "test": "Cellular KRAS G12V-cRAF Binding Inhibition Assay (NanoBRET, AD293 stable cells)", "assay_type": "cell-based", "conditions": "3 h incubation, read-out: NanoBRET KRAS G12V", "method_in_brief": "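Live AD293 stable cells, NanoLuc donor with HaloTag NanoBRET 618 ligand acceptor added overnight. Inhibition percent from luminescence relative to max signal and medium blank; IC50 from curve fitting.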"}, "[5]": {"test": "PK Study of Compounds in Mice", "assay_type": "in vivo, Female ICR mice", "conditions": "mean; for Cmax: read-out: C0/Cmax", "experimental": "as §1, with “0.2” for “0.5”, “Female ICR mice” for “Male SD rats”"}, "[6]": {"conditions": "both sexes, beagle, dog, whole blood, IV 1 mg/kg (n=3)"}, "[7]": {"conditions": "both sexes, beagle, dog, whole blood, PO 3 mg/kg (n=3)"}, "[8]": {"conditions": "PO 10 mg/kg vs IV 1 mg/kg (n=3)"}, "[9]": {"conditions": "male, SD, rat, whole blood, IV 1 mg/kg (n=3)"}, "[10]": {"conditions": "male, SD, rat, whole blood, PO 10 mg/kg (n=3)"}, "[11]": {"conditions": "female, ICR, mouse, whole blood, IV 1 mg/kg (n=3)"}, "[12]": {"conditions": "female, ICR, mouse, whole blood, PO 10 mg/kg (n=3)"}},
  "data": [
    {"molecule": "CC1OCCCn2c(c3c4cc(ccc42)-c2csc(n2)CC(NC(=O)C2C(C)C2C)C(=O)N2NC(C(=O)OCC(C)(C)C3)C3CC2C3)-c2cc(N3CCN(C)CC3)cnc21", "note": "[Example 186, (1r,2R,3S)-2,3-dimethyl-N-((1^5S,6^4S,4S,Z)-1^5,10,10-trimethyl-1^2-(4-methylpiperazin-1-yl)-5,7-dioxo-1^8,1^9-dihydro-1^5H,1^7H-8-oxa-6^2,6^3-diaza-1(13,15)-pyrido[3',2':7,8][1,5]oxazonino[5,6-a]indola-2(4,2)-thiazola-6(2,4)-bicyclo[3.1.1]heptanacycloundecaphane-4-yl)cyclopropane-1-carbox amide]", "values": [
      {"measurement": "IC50", "setting": "[1]", "result": 0.15, "unit": "nM"},
      {"measurement": "IC50", "setting": "[2]", "result": 0.42, "unit": "nM"},
      {"measurement": "F", "setting": "[3]; PO 3 mg/kg vs IV 1 mg/kg (n=3)", "result": 41.2},
      {"measurement": "AUC(0-t)", "setting": "[3]; [6]", "result": 16600, "unit": "ng·h/mL"},
      {"measurement": "clearance", "setting": "[3]; [6]", "result": 0.659, "unit": "mL/min/kg"},
      {"measurement": "half-life", "setting": "[3]; [6]", "result": 34.8, "unit": "h"},
      {"measurement": "Cmax", "setting": "[3]; [6]", "result": 2020, "unit": "ng/mL"},
      {"measurement": "Vd", "setting": "[3]; both sexes, beagle, dog, whole blood, IV 1 mg/kg (n=3), read-out: Vss", "result": 2.62, "unit": "L/kg"},
      {"measurement": "AUC(0-t)", "setting": "[3]; [7]", "result": 20500, "unit": "ng·h/mL"},
      {"measurement": "Tmax", "setting": "[3]; [7]", "result": 1.17, "unit": "h"},
      {"measurement": "Cmax", "setting": "[3]; [7]", "result": 608, "unit": "ng/mL"},
      {"measurement": "F", "setting": "[4]; [8]", "result": 19.5},
      {"measurement": "clearance", "setting": "[4]; [9]", "result": 1.93, "unit": "mL/min/kg"},
      {"measurement": "half-life", "setting": "[4]; [9]", "result": 8.4, "unit": "h"},
      {"measurement": "AUC(0-t)", "setting": "[4]; [9]", "result": 7510, "unit": "ng·h/mL"},
      {"measurement": "Cmax", "setting": "[4]; [9]", "result": 4250, "unit": "ng/mL"},
      {"measurement": "Vd", "setting": "[4]; male, SD, rat, whole blood, IV 1 mg/kg (n=3), read-out: Vss", "result": 1.2, "unit": "L/kg"},
      {"measurement": "AUC(0-t)", "setting": "[4]; [10]", "result": 14600, "unit": "ng·h/mL"},
      {"measurement": "Cmax", "setting": "[4]; [10]", "result": 1370, "unit": "ng/mL"},
      {"measurement": "Tmax", "setting": "[4]; male, SD, rat, whole blood, PO 10 mg/kg (n=3), read-out: Tmax", "result": 4, "unit": "h"},
      {"measurement": "IC50", "setting": "KRAS G12V-cRAF", "result": 5.4, "unit": "nM"},
      {"measurement": "F", "setting": "[5]; [8]", "result": 31.1},
      {"measurement": "AUC(0-t)", "setting": "[5]; [11]", "result": 3260, "unit": "ng·h/mL"},
      {"measurement": "clearance", "setting": "[5]; [11]", "result": 4.45, "unit": "mL/min/kg"},
      {"measurement": "half-life", "setting": "[5]; [11]", "result": 9.31, "unit": "h"},
      {"measurement": "Cmax", "setting": "[5]; [11]", "result": 571, "unit": "ng/mL"},
      {"measurement": "Vd", "setting": "[5]; female, ICR, mouse, whole blood, IV 1 mg/kg (n=3), read-out: Vss", "result": 3.09, "unit": "L/kg"},
      {"measurement": "AUC(0-t)", "setting": "[5]; [12]", "result": 10100, "unit": "ng·h/mL"},
      {"measurement": "Tmax", "setting": "[5]; [12]", "result": 4, "unit": "h"},
      {"measurement": "Cmax", "setting": "[5]; [12]", "result": 679, "unit": "ng/mL"}
    ]}
  ]
}
